This is an account of results in patent US11053259B2, “Crystal of cephalosporin intermediate 7α-methoxy cephalothin and method for preparing same” (QILU ANTIBIOTICS PHARMACEUTICAL CO. LTD., priority 2017, dated 2021).

Counter-ions that a name gives are not always drawn.

The nature of data set [1]: 6-month accelerated comparative study on stability. Format: physicochemical. The following applies: for Appearance / Content / Moisture: 25° C. and RH of 60%.
Data set [2] in a line: hygroscopicity and storage stability of the cyclohexylamine salt (statement on existing technology). It counts as physicochemical.

`CO[C@@]1(NC(=O)Cc2cccs2)C(=O)N2C(C(=O)O)=C(COC(C)=O)CS[C@@H]21` [listing 1 of 2 here]: in data set [1] (6-month accelerated testing), the “stability of appearance, hygroscopicity and content (overall result in words)” value was “better purity and quality stability”.

On to `CO[C@@]1(NC(=O)Cc2cccs2)C(=O)N2C(C(=O)O)=C(COC(C)=O)CS[C@@H]21` [listing 2 of 2 here], for which, in data set [2], the storage stability entry was “poor storage stability”.

With `CO[C@@]1(NC(=O)Cc2cccs2)C(=O)N2C(C(=O)O)=C(COC(C)=O)CS[C@@H]21` [Cyclohexylamine Salt of 7α-Methoxy Cephalothin], in data set [2], the hygroscopicity result is recorded as “strong hygroscopicity”. The Appearance result in data set [1] (Month 0) is “Off-white”; in data set [1] (Month 1), “Light”; in data set [1] (Month 2), “Yellow”; in data set [1] (Month 3), “Yellow”; in data set [1] (Month 6), “Earthy”. Also, the Content in data set [1] (Month 0) was determined as 78.4%; in data set [1] (Month 1), 77.5%; in data set [1] (Month 2) it was 76.3%; in data set [1] (Month 3), 75.1%; in data set [1] (Month 6) it was 72.4%. The Moisture came to 0.13% in data set [1] (Month 0); 0.87% in data set [1] (Month 1); 1.56% in data set [1] (Month 2); 1.84% in data set [1] (Month 3); 2.55% in data set [1] (Month 6).

Regarding `CO[C@@]1(NC(=O)Cc2cccs2)C(=O)N2C(C(=O)O)=C(COC(C)=O)CS[C@@H]21` [Crystal of 7α-Methoxy Cephalothin, (6R, 7S)-3-acetyloxymethyl-7-methoxy-8-oxo-7-[2-(2-thienyl)acetamido]-5-thia-1-nitrobicyclo [4.2.0] oct-2-ene-2-carboxylic acid], the Appearance entry in data set [1] (Month 0), in data set [1] (Month 1), in data set [1] (Month 2), in data set [1] (Month 3) and in data set [1] (Month 6) was “Off-white” throughout. Besides, the Content in data set [1] (Month 0) was 98.2%; in data set [1] (Month 1), 98.2%; in data set [1] (Month 2) it was 98.1%; in data set [1] (Month 3), 98.1%; in data set [1] (Month 6), 97.9%. For the same compound, the Moisture amounted to 0.26% in data set [1] (Month 0); 0.27% in data set [1] (Month 1); 0.27% in data set [1] (Month 2); 0.29% in data set [1] (Month 3); 0.28% in data set [1] (Month 6).
